Assay results: patent US20240116985A1, “STAPLED PEPTIDES AND METHODS THEREOF” (priority 2020, published 2024)

Assay: CHI Log D procedure
Assay type: physicochemical
Conditions: for CHI Log D: pH 7.4

Row | SMILES | chromatographic logD (pH 7.4, CHI Log D) | CHI Log D | further results
1 | CC(=O)N1CCC[C@]12CC=CCCCC1(CCCC=CCCCCCC[C@@](C)(C(=O)N[C@@H](Cc3ccccc3)C(=O)N[C@@H](Cc3c[nH]c4ccccc34)C(=O)N[C@@H](CO)C(N)=O)NC(=O)[C@H](C(C)C)NC(=O)[C@H](Cc3ccccc3)NC(=O)[C@H](C)NC(=O)[C@H](C)NC(=O)[C@H](CC(=O)O)NC(=O)[C@H](CC(=O)O)NC1=O)NC(=O)[C@H](C)NC(=O)[C@H](CC(=O)O)NC2=O (single isomer, unassigned) [I-334, Ac-PL3-Asp-Ala-B5-Asp-Asp-Ala-Ala-Phe-Val-S8-Phe-WCHO-Ser-NH2] | – | – | logD (pH 7.4, CHI Log D): 1.86
2 | CC(=O)N[C@@H](Cc1ccccc1)C(=O)N[C@@H](CC(=O)O)C(=O)N[C@@H](C)C(=O)N[C@]1(C)CCCCCCC=CCOC(=O)N2CC[C@@](C(=O)N[C@@H](Cc3ccccc3)C(=O)N[C@@H](Cc3c[nH]c4ccccc34)C(=O)N[C@@H](CCC(N)=O)C(N)=O)(C2)NC(=O)[C@H](C(C)C)NC(=O)[C@H](Cc2ccccc2)NC(=O)[C@H](C)NC(=O)[C@H](C)NC(=O)[C@H](CCC(=O)O)NC(=O)[C@H](CC(=O)O)NC1=O [I-3, Ac-Phe-Asp-Ala-R8-Asp-Glu-Ala-Ala-Phe-Val-PyrS-Phe-Trp-Gln-NH2] | – | 1.307 | –
3 | CC(=O)N[C@@H](Cc1ccccc1)C(=O)N[C@@H](CC(=O)O)C(=O)N[C@@H](C)C(=O)N[C@]1(C)CCCCCCC=CCOC(=O)N2CC[C@@](C(=O)N[C@@H](Cc3ccccc3)C(=O)N[C@@H](Cc3c[nH]c4ccccc34)C(=O)N[C@@H](CCC(N)=O)C(N)=O)(C2)NC(=O)[C@H](C(C)C)NC(=O)[C@H](Cc2ccccc2)NC(=O)[C@H](C)NC(=O)[C@H](C)NC(=O)[C@H](CCC(=O)O)NC(=O)[C@H](CC(=O)O)NC1=O [I-4, Ac-Phe-Asp-Ala-R8-Asp-Glu-Ala-Ala-Phe-Val-PyrS-Phe-Trp-Gln-NH2] | – | 1.353 | –
4 | CCCC[C@@H]1NC(=O)[C@H](CC(=O)O)NC(=O)[C@](C)(NC(=O)[C@H](C)NC(=O)[C@H](CC(=O)O)NC(=O)[C@H](Cc2ccccc2)NC(C)=O)CCCCCCC=CCOC(=O)N2CC[C@@](C(=O)N[C@@H](Cc3ccccc3)C(=O)N[C@@H](Cc3c[nH]c4ccccc34)C(=O)N[C@@H](CCC(N)=O)C(N)=O)(C2)NC(=O)[C@H](C(C)C)NC(=O)[C@H](Cc2ccccc2)NC(=O)[C@H](C)NC(=O)[C@H](C)NC1=O [I-14, Ac-Phe-Asp-Ala-R8-Asp-nLeu-Ala-Ala-Phe-Val-PyrS-Phe-Trp-Gln-NH2] | – | 2.013 | –
5 | CC(=O)N[C@@H](Cc1ccccc1)C(=O)N[C@@H](CC(=O)O)C(=O)N[C@@H](C)C(=O)N[C@]1(C)CCCCCCC=CCOC(=O)N2CC[C@@](C(=O)N[C@@H](Cc3ccccc3)C(=O)N[C@@H](Cc3c[nH]c4ccccc34)C(=O)N[C@@H](CCC(N)=O)C(N)=O)(C2)NC(=O)[C@H](C(C)C)NC(=O)[C@H](Cc2ccccc2)NC(=O)[C@H](CCCC(=O)O)NC(=O)[C@H](C)NC(=O)[C@H](CC(=O)O)NC(=O)[C@H](CC(=O)O)NC1=O [I-23, Ac-Phe-Asp-Ala-R8-Asp-Asp-Ala-Aad-Phe-Val-PyrS-Phe-Trp-Gln-NH2] | – | 0.942 | –
6 | CC(=O)N[C@@H](Cc1ccccc1)C(=O)N[C@@H](CC(=O)O)C(=O)N[C@@H](C)C(=O)N[C@]1(C)CCCCCCC=CCOC(=O)N2CC[C@@](C(=O)N[C@@H](Cc3ccccc3)C(=O)N[C@@H](Cc3c[nH]c4ccccc34)C(=O)N[C@@H](CCC(N)=O)C(N)=O)(C2)NC(=O)[C@H](C(C)C)NC(=O)[C@H](Cc2ccccc2)NC(=O)[C@H](CCCC(=O)O)NC(=O)[C@H](C)NC(=O)[C@H](CC(=O)O)NC(=O)[C@H](CC(=O)O)NC1=O [I-24, Ac-Phe-Asp-Ala-R8-Asp-Asp-Ala-Aad-Phe-Val-PyrS-Phe-Trp-Gln-NH2] | – | 0.977 | –
7 | CC(=O)N[C@@H](Cc1ccccc1)C(=O)N[C@@H](CC(=O)O)C(=O)N[C@@H](C)C(=O)N[C@]1(C)CCCCC=CCOC(=O)N(C)CCC[C@@](C)(C(=O)N[C@@H](Cc2ccccc2)C(=O)N[C@@H](Cc2c[nH]c3ccccc23)C(=O)N[C@@H](CCC(N)=O)C(N)=O)NC(=O)[C@H](C(C)C)NC(=O)[C@H](Cc2ccccc2)NC(=O)[C@H](C)NC(=O)[C@H](C)NC(=O)[C@H](CC(=O)O)NC(=O)[C@H](CC(=O)O)NC1=O [I-26, Ac-Phe-Asp-Ala-R6-Asp-Asp-Ala-Ala-Phe-Val-SeN-Phe-Trp-Gln-NH2] | 1.25 | – | –
8 | CC(=O)N[C@@H](Cc1ccccc1)C(=O)N[C@@H](CC(=O)O)C(=O)N[C@@H](C)C(=O)N[C@]1(C)CCCN(C)C(=O)OCC=CCCC[C@@](C)(C(=O)N[C@@H](Cc2ccccc2)C(=O)N[C@@H](Cc2c[nH]c3ccccc23)C(=O)N[C@@H](CCC(N)=O)C(N)=O)NC(=O)[C@H](C(C)C)NC(=O)[C@H](Cc2ccccc2)NC(=O)[C@H](C)NC(=O)[C@H](C)NC(=O)[C@H](CC(=O)O)NC(=O)[C@H](CC(=O)O)NC1=O [I-27, Ac-Phe-Asp-Ala-ReN-Asp-Asp-Ala-Ala-Phe-Val-S5-Phe-Trp-Gln-NH2] | 1.15 | – | –
9 | CC(=O)N[C@@H](Cc1ccccc1)C(=O)N[C@@H](CC(=O)O)C(=O)N[C@@H](C)C(=O)N[C@]1(C)CCCN(C)C(=O)OCC=CCCCC[C@@](C)(C(=O)N[C@@H](Cc2ccccc2)C(=O)N[C@@H](Cc2c[nH]c3ccccc23)C(=O)N[C@@H](CCC(N)=O)C(N)=O)NC(=O)[C@H](C(C)C)NC(=O)[C@H](Cc2ccccc2)NC(=O)[C@H](C)NC(=O)[C@H](C)NC(=O)[C@H](CC(=O)O)NC(=O)[C@H](CC(=O)O)NC1=O [I-28, Ac-Phe-Asp-Ala-ReN-Asp-Asp-Ala-Ala-Phe-Val-S6-Phe-Trp-Gln-NH2] | – | 1.219 | –
10 | CC(=O)N[C@@H](Cc1ccccc1)C(=O)N[C@@H](CC(=O)O)C(=O)N[C@@H](C)C(=O)NC12CN(C1)C(=O)OCC=CCCCCC[C@@](C)(C(=O)N[C@@H](Cc1ccccc1)C(=O)N[C@@H](Cc1c[nH]c3ccccc13)C(=O)N[C@@H](CCC(N)=O)C(N)=O)NC(=O)[C@H](C(C)C)NC(=O)[C@H](Cc1ccccc1)NC(=O)[C@H](C)NC(=O)[C@H](C)NC(=O)[C@H](CC(=O)O)NC(=O)[C@H](CC(=O)O)NC2=O [I-32, Ac-Phe-Asp-Ala-Az-Asp-Asp-Ala-Ala-Phe-Val-S7-Phe-Trp-Gln-NH2] | – | 1.243 | –
11 | CC(=O)N[C@@H](Cc1ccccc1)C(=O)N[C@@H](CC(=O)O)C(=O)N[C@@H](C)C(=O)NC12CN(C1)C(=O)OCC=CCCCCC[C@@](C)(C(=O)N[C@@H](Cc1ccccc1)C(=O)N[C@@H](Cc1c[nH]c3ccccc13)C(=O)N[C@@H](CCC(N)=O)C(N)=O)NC(=O)[C@H](C(C)C)NC(=O)[C@H](Cc1ccccc1)NC(=O)[C@H](C)NC(=O)[C@H](C)NC(=O)[C@H](CC(=O)O)NC(=O)[C@H](CC(=O)O)NC2=O [I-33, Ac-Phe-Asp-Ala-Az-Asp-Asp-Ala-Ala-Phe-Val-S7-Phe-Trp-Gln-NH2] | – | 1.228 | –
12 | CC(=O)N[C@@H](Cc1ccccc1)C(=O)N[C@@H](CC(=O)O)C(=O)N[C@@H](C)C(=O)N[C@]1(C)CCCCCCC=CCOC(=O)N(C)C[C@@](C)(C(=O)N[C@@H](Cc2ccccc2)C(=O)N[C@@H](Cc2c[nH]c3ccccc23)C(=O)N[C@@H](CCC(N)=O)C(N)=O)NC(=O)[C@H](C(C)C)NC(=O)[C@H](Cc2ccccc2)NC(=O)[C@H](C)NC(=O)[C@H](C)NC(=O)[C@H](CC(=O)O)NC(=O)[C@H](CC(=O)O)NC1=O [I-34, Ac-Phe-Asp-Ala-R8-Asp-Asp-Ala-Ala-Phe-Val-SgN-Phe-Trp-Gln-NH2] | 1.32 | – | –

Now from value to compound, other results behind:

Row | chromatographic logD (pH 7.4, CHI Log D) | CHI Log D | SMILES | further results
13 | 2.34 | – | CC(=O)N1CCC[C@]12CC=CCCCC1(CCCC=CCCCCCC[C@@](C)(C(=O)N[C@@H](Cc3ccccc3)C(=O)N[C@@H](Cc3c[nH]c4ccccc34)C(=O)N[C@@H](CCC(N)=O)C(N)=O)NC(=O)[C@H](C(C)C)NC(=O)[C@H](Cc3ccccc3)NC(=O)[C@H](C)NC(=O)[C@H](C)NC(=O)[C@H](CCC(=O)O)NC(=O)[C@H](CC(=O)O)NC1=O)NC(=O)[C@H](C)NC(=O)[C@H](Cc1c[nH]cn1)NC2=O (single isomer, unassigned) [I-314, Ac-PL3-His-Ala-B5-Asp-Glu-Ala-Ala-Phe-Val-S8-Phe-Trp-Gln-NH2] | –
14 | 2.04 | – | CC(=O)N1CCC[C@]12CC=CCCCC1(CCCC=CCCCCCC[C@@](C)(C(=O)N[C@@H](Cc3ccccc3)C(=O)N[C@@H](Cc3c[nH]c4ccccc34)C(=O)N[C@@H](CCC(N)=O)C(N)=O)NC(=O)[C@H](C(C)C)NC(=O)[C@H](Cc3c[nH]cn3)NC(=O)[C@H](C)NC(=O)[C@H](C)NC(=O)[C@H](CC(=O)O)NC(=O)[C@H](CC(=O)O)NC1=O)NC(=O)[C@H](C)NC(=O)[C@H](CC(=O)O)NC2=O (single isomer, unassigned) [I-320, Ac-PL3-Asp-Ala-B5-Asp-Asp-Ala-Ala-His-Val-S8-Phe-Trp-Gln-NH2] | –
15 | – | 1.928 | CC(=O)N1CCC[C@]12CC=CCCCC1(CCCC=CCCCCCC[C@@](C)(C(=O)N[C@@H](Cc3ccccc3)C(=O)N[C@@H](Cc3c[nH]c4ccccc34)C(=O)N[C@@H](CO)C(N)=O)NC(=O)[C@H](C(C)C)NC(=O)[C@H](Cc3ccccc3)NC(=O)[C@H](C)NC(=O)[C@H](C)NC(=O)[C@H](CC(=O)O)NC(=O)[C@H](CC(=O)O)NC1=O)NC(=O)[C@H](C)NC(=O)[C@H](CC(=O)O)NC2=O (single isomer, unassigned) [I-335, Ac-PL3-Asp-Ala-B5-Asp-Asp-Ala-Ala-Phe-Val-S8-Phe-WCHO-Ser-NH2] | –
16 | 1.13 | – | CC(=O)N[C@@H](Cc1ccccc1)C(=O)N[C@@H](CC(=O)O)C(=O)N[C@@H](C)C(=O)N[C@]1(C)CCC=CCOC(=O)N(C)CCC[C@@](C)(C(=O)N[C@@H](Cc2ccccc2)C(=O)N[C@@H](Cc2c[nH]c3ccccc23)C(=O)N[C@@H](CCC(N)=O)C(N)=O)NC(=O)[C@H](C(C)C)NC(=O)[C@H](Cc2ccccc2)NC(=O)[C@H](C)NC(=O)[C@H](C)NC(=O)[C@H](CC(=O)O)NC(=O)[C@H](CC(=O)O)NC1=O [I-36, Ac-Phe-Asp-Ala-R4-Asp-Asp-Ala-Ala-Phe-Val-SeN-Phe-Trp-Gln-NH2] | –
17 | 1.16 | – | CC(=O)N[C@@H](Cc1ccccc1)C(=O)N[C@@H](CC(=O)O)C(=O)N[C@@H](C)C(=O)N[C@]1(C)CCCC=CCOC(=O)N(C)CC[C@@](C)(C(=O)N[C@@H](Cc2ccccc2)C(=O)N[C@@H](Cc2c[nH]c3ccccc23)C(=O)N[C@@H](CCC(N)=O)C(N)=O)NC(=O)[C@H](C(C)C)NC(=O)[C@H](Cc2ccccc2)NC(=O)[C@H](C)NC(=O)[C@H](C)NC(=O)[C@H](CC(=O)O)NC(=O)[C@H](CC(=O)O)NC1=O [I-37, Ac-Phe-Asp-Ala-R5-Asp-Asp-Ala-Ala-Phe-Val-SdN-Phe-Trp-Gln-NH2] | –
